Values quoted from earlier work as cited in patent US8420699B1, “Composition and methods of treatment using deionized and ozonated solution” (priority 2002, dated 2013).

Q: Which half-life of ozone (at 68° F.) does the source give for `O=[O+][O-]` [ozone] here?
A: Its half-life of ozone is 45 min.

Q: What about the “concentrated effectiveness relative to initial value” (in two hours after generation) of the same compound?
A: Its value is 16 % of its initial value.
